Experimental findings from patent US20260053834A1, “COVALENT MODIFIERS OF AKT1 AND USES THEREOF” (Terremoto Biosciences, Inc., priority 2023, published 2026) are described below.

Assay [1] deals with LAPC4 prostate cancer cells, which express the AKT1 E17K allele. Put plainly: Antiproliferative effects in LAPC4 cells (CellTiter Glo, 72 h). Format: cell-based. The conditions noted are these: Homo sapiens, LAPC4, 72 h, read-out: LAPC4 proliferation IC50: GeoMean IC50. A digest of the protocol: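 IC50 values come from Hill-equation fitting of luminescence (cellular ATP) after 72 h compound exposure. Treated wells held 1,000 cells each, with compound delivered as DMSO dilutions. Culture medium was IMDM plus 12% FBS.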

Assay [2] addresses T1, AKT1 E17K (Homo sapiens, UniProt P31749, E17K).
T1 construct: expressed in transfected cells; host or cells: HEK293
Put plainly: Live cell target engagement by NanoBRET competitive probe displacement, AKT1 E17K. Format: binding. The conditions noted are these: transfected HEK293 cells, 2 h at 37° C., read-out: AKT1 E17K IC50: GeoMean IC50. A general note: BRET reads energy transfer from a luciferase to a nearby fluorophore.

In assay [3] the target is T2, AKT1 WT (Homo sapiens, UniProt P31749).
T2 construct: expressed in transfected cells; host or cells: HEK293
T2 sequence (P31749 whole entry): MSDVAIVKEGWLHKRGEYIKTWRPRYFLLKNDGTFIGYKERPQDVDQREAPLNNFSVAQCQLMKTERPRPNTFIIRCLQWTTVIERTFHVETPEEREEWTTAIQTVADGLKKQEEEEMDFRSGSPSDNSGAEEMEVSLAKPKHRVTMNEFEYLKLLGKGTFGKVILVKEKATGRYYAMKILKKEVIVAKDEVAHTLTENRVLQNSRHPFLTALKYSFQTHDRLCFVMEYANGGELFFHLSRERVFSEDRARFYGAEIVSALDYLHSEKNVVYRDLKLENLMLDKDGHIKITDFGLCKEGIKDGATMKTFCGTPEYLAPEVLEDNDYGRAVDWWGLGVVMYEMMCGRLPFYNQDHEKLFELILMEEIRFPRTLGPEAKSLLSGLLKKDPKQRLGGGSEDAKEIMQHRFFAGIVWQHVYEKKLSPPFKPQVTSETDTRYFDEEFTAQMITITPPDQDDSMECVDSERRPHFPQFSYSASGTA
Put plainly: Live cell target engagement by NanoBRET competitive probe displacement, AKT1 WT. The following applies: transfected HEK293 cells, 2 h at 37° C., read-out: AKT1 WT IC50: GeoMean IC50. Format: binding.

In assay [4] the target is T3, AKT2 (Homo sapiens, UniProt P31751).
T3 construct: expressed in transfected cells; host or cells: HEK293
T3 sequence (P31751 whole entry): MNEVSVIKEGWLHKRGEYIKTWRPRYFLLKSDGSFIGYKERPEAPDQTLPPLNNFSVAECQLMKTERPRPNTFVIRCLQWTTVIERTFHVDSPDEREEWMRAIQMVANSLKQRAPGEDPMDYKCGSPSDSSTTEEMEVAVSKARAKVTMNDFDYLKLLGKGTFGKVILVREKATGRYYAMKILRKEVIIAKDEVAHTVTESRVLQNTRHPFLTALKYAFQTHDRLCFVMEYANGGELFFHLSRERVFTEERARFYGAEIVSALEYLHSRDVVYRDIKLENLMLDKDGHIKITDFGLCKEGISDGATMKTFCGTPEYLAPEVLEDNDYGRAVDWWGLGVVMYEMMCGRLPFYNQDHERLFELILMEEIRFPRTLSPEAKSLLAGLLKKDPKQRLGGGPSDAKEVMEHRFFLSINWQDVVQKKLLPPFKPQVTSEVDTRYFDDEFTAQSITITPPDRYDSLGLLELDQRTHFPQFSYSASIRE
The assay can be described thus: Live cell target engagement by NanoBRET competitive probe displacement, AKT2. It counts as binding. The following applies: transfected HEK293 cells, 2 h at 37° C., read-out: AKT2 IC50: GeoMean IC50.

T1 sequence (P31749 whole entry E17K): as the sequence (P31749 whole entry) above, with E17K counted along it

As to `Nc1ncccc1-c1nc2ccc(-n3cccn3)nc2n1-c1ccc2c(c1)CC[C@@H]2Nc1n[nH]c2c(C=O)cccc12` [Example 148, 3-{[(1S)-5-[2-(2-aminopyridin-3-yl)-5-(pyrazol-1-yl)imidazo[4,5-b]pyridin-3-yl]-2,3-dihydro-1H-inden-1-yl]amino}-1H-indazole-7-carbaldehyde], the IC50 is 100 to 2000 nM in assay [1], 10 to 100 nM in assay [2], 100 to 2000 nM in assay [3] and 100 to 2000 nM in assay [4].

As for `Nc1ncccc1-c1nc2ccc(-n3cccn3)nc2n1-c1ccc2c(c1)C(=O)C[C@@H]2NC(=O)c1ccc(O)c(C=O)c1` [Example 85, N-[(1S)-5-[2-(2-aminopyridin-3-yl)-5-(pyrazol-1-yl)imidazo[4,5-b]pyridin-3-yl]-3-oxo-1,2-dihydroinden-1-yl]-3-formyl-4-hydroxybenzamide], the IC50 in assay [1] is ≥ 2000 nM; in assay [2], 100 to 2000 nM; in assay [3], 100 to 2000 nM; in assay [4], 100 to 2000 nM.

As to `CN(C)C(=O)Nc1ccc(C(=O)N[C@H]2CCc3cc(-n4c(-c5cccnc5N)nc5ccc(-c6ccccc6)nc54)ccc32)cc1C=O` [Example 63, (S)—N-(5-(2-(2-aminopyridin-3-yl)-5-phenyl-3H-imidazo[4,5-b]pyridin-3-yl)-2,3-dihydro-1H-inden-1-yl)-4-(3,3-dimethylureido)-3-formylbenzamide], the IC50 was < 10 nM in assay [1], < 10 nM in assay [2], < 10 nM in assay [3] and 10 to 100 nM in assay [4].

With `C#Cc1cc(O)c(C=O)cc1C(=O)N[C@H]1CCc2cc(-n3c(-c4cccnc4N)nc4ccc(-n5cccn5)nc43)ccc21` [Example 145, N-[(1S)-5-[2-(2-aminopyridin-3-yl)-5-(pyrazol-1-yl)imidazo[4,5-b]pyridin-3-yl]-2,3-dihydro-1H-inden-1-yl]-2-ethynyl-5-formyl-4-hydroxybenzamide], the IC50 in assay [1] was 100 to 2000 nM; in assay [2] it was 10 to 100 nM; in assay [3], 10 to 100 nM; in assay [4] it was 100 to 2000 nM.

`Cc1cc(-c2ncco2)nc2c1nc(-c1cccnc1N)n2-c1ccc2c(c1)CC[C@@H]2NC(=O)c1ccc(O)c(C=O)c1` [Example 211, N-[(1S)-5-[2-(2-aminopyridin-3-yl)-7-methyl-5-(1,3-oxazol-2-yl)imidazo[4,5-b]pyridin-3-yl]-2,3-dihydro-1H-inden-1-yl]-3-formyl-4-hydroxybenzamide]: the IC50 in assay [1] was 10 to 100 nM; in assay [2], < 10 nM; in assay [3], 10 to 100 nM; in assay [4], 100 to 2000 nM.

Take `Nc1ncccc1-c1nc2ccc(-n3cccn3)nc2n1-c1ccc2c(c1)CC[C@@H]2NC(=O)c1cc(C=O)c2[nH]ncc2c1` [Example 66, N-[(1S)-5-[2-(2-aminopyridin-3-yl)-5-(pyrazol-1-yl)imidazo[4,5-b]pyridin-3-yl]-2,3-dihydro-1H-inden-1-yl]-7-formyl-1H-indazole-5-carboxamide]: the IC50 was 10 to 100 nM in assay [1], < 10 nM in assay [2], 10 to 100 nM in assay [3] and 100 to 2000 nM in assay [4].

As for `Nc1ncccc1-c1nc2ccc(NC3CC3)nc2n1-c1ccc2c(c1)CC[C@@H]2NC(=O)c1ccc(O)c(C=O)c1` [Example 87, (S)—N-(5-(2-(2-aminopyridin-3-yl)-5-(cyclopropylamino)-3H-imidazo[4,5-b]pyridin-3-yl)-2,3-dihydro-1H-inden-1-yl)-3-formyl-4-hydroxybenzamide], the IC50 was 100 to 2000 nM in assay [1], 10 to 100 nM in assay [2], 100 to 2000 nM in assay [3] and ≥ 2000 nM in assay [4].

Turning to `Nc1ncccc1-c1nc2ccc(-c3ccc(F)cc3)nc2n1-c1ccc2c(c1)CC[C@@H]2NC(=O)c1ccc(O)c(C=O)c1` [Example 20, (S)—N-(5-(2-(2-aminopyridin-3-yl)-5-(4-fluorophenyl)-3H-imidazo[4,5-b]pyridin-3-yl)-2,3-dihydro-1H-inden-1-yl)-3-formyl-4-hydroxybenzamide], the IC50 in assay [1] was in the range of 10 to 100 nM; in assay [2] it was 10 to 100 nM; in assay [3], 10 to 100 nM; in assay [4] it was 100 to 2000 nM.

As for `Cc1cnc(-c2ccc3nc(-c4cccnc4N)n(-c4ccc5c(c4)CC[C@@H]5NC(=O)c4cc(C=O)c(O)cc4F)c3n2)s1` [Example 185, N-[(1S)-5-[2-(2-aminopyridin-3-yl)-5-(5-methyl-1,3-thiazol-2-yl)imidazo[4,5-b]pyridin-3-yl]-2,3-dihydro-1H-inden-1-yl]-2-fluoro-5-formyl-4-hydroxybenzamide], the IC50 in assay [1] lay in the range of 10 to 100 nM; in assay [2], 10 to 100 nM; in assay [3] it was 10 to 100 nM; in assay [4], 100 to 2000 nM.

Take `C#Cc1cc(-n2cccn2)nc2c1nc(-c1cccnc1N)n2-c1ccc2c(c1)CC[C@@H]2NC(=O)c1ccc(O)c(C=O)c1` [Example 201, N-[(1S)-5-[2-(2-aminopyridin-3-yl)-7-ethynyl-5-(pyrazol-1-yl)imidazo[4,5-b]pyridin-3-yl]-2,3-dihydro-1H-inden-1-yl]-3-formyl-4-hydroxybenzamide]: the IC50 in assay [1] lay within 100 to 2000 nM; in assay [2], 10 to 100 nM; in assay [3], 100 to 2000 nM; in assay [4], 100 to 2000 nM.

With `Nc1ncccc1-c1nc2ccc(-c3ccn(C(F)F)n3)nc2n1-c1ccc2c(c1)CC[C@@H]2NC(=O)c1cc(C=O)c(O)c(F)c1F` [Example 157, (S)—N-(5-(2-(2-aminopyridin-3-yl)-5-(1-(difluoromethyl)-1H-pyrazol-3-yl)-3H-imidazo[4,5-b]pyridin-3-yl)-2,3-dihydro-1H-inden-1-yl)-2,3-difluoro-5-formyl-4-hydroxybenzamide], the IC50 in assay [1] is 10 to 100 nM; in assay [2], < 10 nM; in assay [3], 10 to 100 nM; in assay [4] it was 10 to 100 nM.

`Nc1ncccc1-c1nc2ccc(-n3cc(C(F)F)cn3)nc2n1-c1ccc2c(c1)CC[C@@H]2NC(=O)c1ccc(O)c(C=O)c1` [Example 94, N-[(1S)-5-[2-(2-aminopyridin-3-yl)-5-[4-(difluoromethyl)pyrazol-1-yl]imidazo[4,5-b]pyridin-3-yl]-2,3-dihydro-1H-inden-1-yl]-3-formyl-4-hydroxybenzamide]: the IC50 lay in the range of 100 to 2000 nM in assay [1], 10 to 100 nM in assay [2], 100 to 2000 nM in assay [3] and 100 to 2000 nM in assay [4].

Regarding `CS(=O)(=O)Nc1ccc(C(=O)N[C@H]2CCc3cc(-n4c(-c5cccnc5N)nc5ccc(-n6cccn6)nc54)ccc32)cc1C=O` [Example 86, N-[(1S)-5-[2-(2-aminopyridin-3-yl)-5-(pyrazol-1-yl)imidazo[4,5-b]pyridin-3-yl]-2,3-dihydro-1H-inden-1-yl]-3-formyl-4-methanesulfonamidobenzamide], the IC50 was 10 to 100 nM in assay [1], 10 to 100 nM in assay [2], 10 to 100 nM in assay [3] and 100 to 2000 nM in assay [4].

As for `Nc1ncccc1-c1nc2ccc(-c3ccccc3)nc2n1-c1ccc2c(c1)CC[C@@H]2NC(=O)C1(c2cnc(C=O)c(O)c2)CC1` [Example 12, N-[(1S)-5-[2-(2-aminopyridin-3-yl)-5-phenylimidazo[4,5-b]pyridin-3-yl]-2,3-dihydro-1H-inden-1-yl]-1-(6-formyl-5-hydroxypyridin-3-yl)cyclopropane-1-carboxamide], the IC50 is ≥ 2000 nM in assay [1], 100 to 2000 nM in assay [2], 100 to 2000 nM in assay [3] and 100 to 2000 nM in assay [4].

Turning to `Nc1ncccc1-c1nc2ccc(-n3ccc(Cl)n3)nc2n1-c1ccc2c(c1)CC[C@@H]2NC(=O)c1ccc(O)c(C=O)c1` [Example 96, (S)—N-(5-(2-(2-aminopyridin-3-yl)-5-(3-chloro-1H-pyrazol-1-yl)-3H-imidazo[4,5-b]pyridin-3-yl)-2,3-dihydro-1H-inden-1-yl)-3-formyl-4-hydroxybenzamide], the IC50 in assay [1] fell in the range of 100 to 2000 nM; in assay [2] it was 10 to 100 nM; in assay [3] it was 100 to 2000 nM; in assay [4], 100 to 2000 nM.

On to `Nc1ncccc1-c1nc2ccc(-c3cnccn3)nc2n1-c1ccc2c(c1)CC[C@@H]2NC(=O)c1cc(C=O)c2[nH]ncc2c1` [Example 73, (S)—N-(5-(2-(2-aminopyridin-3-yl)-5-(pyrazin-2-yl)-3H-imidazo[4,5-b]pyridin-3-yl)-2,3-dihydro-1H-inden-1-yl)-7-formyl-1H-indazole-5-carboxamide], for which the IC50 in assay [1] is 10 to 100 nM; in assay [2], < 10 nM; in assay [3] it was 10 to 100 nM; in assay [4] it was 100 to 2000 nM.

For `Nc1ncccc1-c1nc2ccc(C3CC3)nc2n1-c1ccc2c(c1)CC[C@@H]2NC(=O)c1ccc(O)c(C=O)c1` [Example 49, N-[(1S)-5-[2-(2-aminopyridin-3-yl)-5-cyclopropylimidazo[4,5-b]pyridin-3-yl]-2,3-dihydro-1H-inden-1-yl]-3-formyl-4-hydroxybenzamide], the IC50 in assay [1] is 100 to 2000 nM; in assay [2], 100 to 2000 nM; in assay [3], 100 to 2000 nM; in assay [4] it was ≥ 2000 nM.

As for `COCc1cc(-n2cccn2)nc2c1nc(-c1cccnc1N)n2-c1ccc2c(c1)CC[C@@H]2NC(=O)c1ccc(O)c(C=O)c1` [Example 210, N-[(1S)-5-[2-(2-aminopyridin-3-yl)-7-(methoxymethyl)-5-(pyrazol-1-yl)imidazo[4,5-b]pyridin-3-yl]-2,3-dihydro-1H-inden-1-yl]-3-formyl-4-hydroxybenzamide], the IC50 in assay [1] was in the range of 100 to 2000 nM; in assay [2], 10 to 100 nM; in assay [3], 10 to 100 nM; in assay [4], 100 to 2000 nM.
